Data on five compounds can be found in patent publication US9549556B2, “Macrocyclic picolinamides as fungicides” (DOW AGROSCIENCES LLC, priority 2013, dated 2017).

One data set deals with Uncinula necator. The data set can be described thus: Grape powdery mildew (UNCINE) disease control. The data set is classed as in vivo. As to conditions: 1 DP, 100 ppm.
Data set [1] concerns Colletotrichum lagenarium. The data set can be described thus: Cucumber anthracnose (COLLLA) disease control. The conditions noted are these: 1 DP, 100 ppm. The data set is classed as in vivo, Glomerella lagenarium (anamorph Colletotrichum lagenarium).
The next data set relates to Erysiphe cichoracearum. The data set can be described thus: Powdery mildew of cucumber (ERYSCI) disease control. The data set is classed as in vivo. As to conditions: 1 DP, 100 ppm.
The next data set concerns Pyricularia oryzae. Type of data set: in vivo, Magnaporthe grisea (anamorph Pyricularia oryzae). As to conditions: 1 DP, 100 ppm, rice.
Another data set relates to Alternaria solani. The data set can be described thus: Tomato early blight (ALTESO) disease control. The conditions noted are these: 1 DP, 100 ppm. Type of data set: in vivo.
The subject of another data set is Cercospora beticola. The data set can be described thus: Leaf spot of sugar beets (CERCBE) disease control. Type of data set: in vivo. The conditions noted are these: 1 DP, 100 ppm, sugar beet.
Another data set has as its system Rhyncosporium secalis. The data set can be described thus: Barley scald (RHYNSE) disease control. The data set is classed as in vivo. As to conditions: 1 DP, 100 ppm.
In data set [2] the test system is Blumeria graminis f. sp. hordei. The data set can be described thus: Barley powdery mildew (ERYSGH) disease control. The data set is classed as in vivo. The conditions noted are these: 1 DP, 100 ppm.
Another data set deals with Leptosphaeria nodorum. The data set can be described thus: Wheat glume blotch (LEPTNO) disease control. Type of data set: in vivo. The conditions noted are these: 1 DP, 100 ppm.
For another data set, the system named is Septoria tritici. The data set can be described thus: Leaf blotch of wheat (SEPTTR) disease control on wheat seedlings. As to conditions: Zymoseptoria tritici, read-out: SEPTTR disease control rating (% Control); for pest or weed control at 121.5 g/ha: 121.5 g/H, low volume (track spray) application; for pest or weed control at 100 ppm: high volume application. Type of data set: in vivo, Mycosphaerella graminicola (anamorph Septoria tritici). On the procedure:
Evaluation of Fungicidal Activity: Leaf Blotch of Wheat (Mycosphaerella graminicola; Anamorph: Septoria tritici; Bayer Code […]) Technical grades of materials were dissolved in acetone, which were then mixed with nine volumes of water containing 110 ppm Triton X-100. The fungicide solutions were applied onto wheat seedlings using an automated booth sprayer to run-off. All sprayed plants were allowed to air dry prior to further handling. All fungicides were evaluated using the aforementioned method for their activity vs. all target diseases. Wheat leaf blotch and brown rust activity were also evaluated using track spray applications, in which case the fungicides were formulated as EC formulations, containing 0.1% Trycol 5941 in the spray solutions. Wheat plants (variety Yuma) were grown from seed in a greenhouse in 50% mineral soil/50% soil-less Metro mix until the first leaf was fully emerged, with 7-10 seedlings per pot. These plants were inoculated with an aqueous spore suspension of Septoria tritici either prior to or after fungicide treatments. After inoculation the plants were kept in 100% relative humidity (one day in a dark dew chamber followed by two to three days in a lighted dew chamber at 20° C.) to permit spores to germinate and infect the leaf. The plants were then transferred to a greenhouse set at 20° C. for disease to develop. When disease symptoms were fully expressed on the 1st leaves of untreated plants, infection levels were assessed on a scale of 0 to 100 percent disease severity. Percent disease control was calculated using the ratio of disease severity on treated plants relative to untreated plants.

For another data set, the system named is Puccinia triticina. The data set can be described thus: Wheat brown rust (PUCCRT) disease control on wheat seedlings. Type of data set: in vivo. As to conditions: read-out: PUCCRT disease control rating (% Control); for pest or weed control at 121.5 g/ha: 121.5 g/H, low volume (track spray) application; for pest or weed control at 100 ppm: high volume application.

Like-named read-outs stand apart in the source and are kept apart here.

For `CCCC[C@H]1[C@H](C)OC(=O)[C@@H](NC(=O)c2nccc(OC)c2OCOC(C)=O)COC[C@@H]1OCC1CC1` [Compound 6], the “UNCINE disease control rating (% Control)” value in the data set with Uncinula necator is given as “A (>70)”. Besides, the “COLLLA disease control rating (% Control)” value in data set [1] is given as “A (>70)”. Also, the “ERYSCI disease control rating (% Control)” value in the data set on Erysiphe cichoracearum is recorded as “A (>70)”. The “PYRIOR disease control rating (% Control)” value in the data set with Pyricularia oryzae is “A (>70)”. The “ALTESO disease control rating (% Control)” value in the data set on Alternaria solani is on record as “B (≦70)”. Also, the “CERCBE disease control rating (% Control)” value in the data set on Cercospora beticola is “A (>70)”. Further, the “RHYNSE disease control rating (% Control)” value with Rhyncosporium secalis was “A (>70)”. Moreover, the “ERYSGH disease control rating (% Control)” value in data set [2] is reported as “A (>70)”. Further, the “LEPTNO disease control rating (% Control)” value in the data set with Leptosphaeria nodorum is given as “A (>70)”. Further, the pest or weed control at 121.5 g/ha in the data set with Septoria tritici (24 h, 1DP (1 Day Protectant)) is more than 70%; in the data set on Septoria tritici (72 h, 3DC (3 Day Curative)), more than 70%; in the data set with Puccinia triticina (24 h, 1DP (1 Day Protectant)), more than 70%; with Puccinia triticina (72 h, 3DC (3 Day Curative)), more than 70%.
With `CCCC[C@H]1[C@H](C)OC(=O)[C@@H](NC(=O)c2nccc(OC)c2OC(C)=O)COC[C@@H]1OCC1CC1` [Compound 9], the “UNCINE disease control rating (% Control)” value in the data set on Uncinula necator was “A (>70)”. Moreover, the “COLLLA disease control rating (% Control)” value in [1] is “A (>70)”. In addition, the “ERYSCI disease control rating (% Control)” value in the data set with Erysiphe cichoracearum is “B (≦70)”. The “PYRIOR disease control rating (% Control)” value with Pyricularia oryzae is recorded as “B (≦70)”. Moreover, the “ALTESO disease control rating (% Control)” value in the data set with Alternaria solani is “B (≦70)”. In the data set on Cercospora beticola, the “CERCBE disease control rating (% Control)” value is on record as “B (≦70)”. The “RHYNSE disease control rating (% Control)” value in the data set with Rhyncosporium secalis was “A (>70)”. Also, the “ERYSGH disease control rating (% Control)” value in data set [2] is “B (≦70)”. Also, the “LEPTNO disease control rating (% Control)” value in the data set on Leptosphaeria nodorum is given as “A (>70)”. Moreover, the pest or weed control at 121.5 g/ha is more than 70% in the data set with Septoria tritici (24 h, 1DP (1 Day Protectant)); more than 70% in the data set on Septoria tritici (72 h, 3DC (3 Day Curative)); more than 70% with Puccinia triticina (24 h, 1DP (1 Day Protectant)); more than 70% in the data set with Puccinia triticina (72 h, 3DC (3 Day Curative)).
For the compound `COc1ccnc(C(=O)N[C@H]2COC[C@H](OCc3ccccc3)[C@@H](CCC(C)C)[C@H](C)OC2=O)c1OC(C)=O` [Compound 67], the melting point was 55 to 61 °C. Moreover, the pest or weed control at 121.5 g/ha in the data set with Septoria tritici (24 h, 1DP (1 Day Protectant)) is more than 70%. In addition, the pest or weed control at 121.5 g/ha in the data set with Septoria tritici (72 h, 3DC (3 Day Curative)) was more than 70%. In addition, the pest or weed control at 121.5 g/ha in the data set on Puccinia triticina (24 h, 1DP (1 Day Protectant)) was more than 70%. For the same compound, in the data set with Puccinia triticina (72 h, 3DC (3 Day Curative)), the pest or weed control at 121.5 g/ha was more than 70%.
Turning to `COc1ccnc(C(=O)N[C@H]2COC[C@H](OCC(C)C)[C@@H](Cc3ccccc3)[C@H](C)OC2=O)c1OC(C)=O` [Compound 79], the melting point is 52 to 57 °C. Also, the pest or weed control at 121.5 g/ha in the data set on Septoria tritici (24 h, 1DP (1 Day Protectant)) is more than 70%. Also, in the data set on Septoria tritici (72 h, 3DC (3 Day Curative)), the pest or weed control at 121.5 g/ha is more than 70%. In addition, in the data set with Puccinia triticina (24 h, 1DP (1 Day Protectant)), the pest or weed control at 121.5 g/ha is more than 70%. Besides, in the data set on Puccinia triticina (72 h, 3DC (3 Day Curative)), the pest or weed control at 121.5 g/ha was more than 70%.
For `COc1ccnc(C(=O)N[C@H]2COC[C@H](OCC3CC3)[C@@H](Cc3ccccc3)[C@H](C)OC2=O)c1OC(C)=O` [Compound 87], the melting point is 54 to 59 °C. Besides, in the data set on Septoria tritici (24 h, 1DP (1 Day Protectant)), the pest or weed control at 100 ppm is more than 70%. For the same compound, in the data set on Septoria tritici (72 h, 3DC (3 Day Curative)), the pest or weed control at 100 ppm is more than 70%. Besides, in the data set on Puccinia triticina (24 h, 1DP (1 Day Protectant)), the pest or weed control at 100 ppm was more than 70%. Further, the pest or weed control at 100 ppm with Puccinia triticina (72 h, 3DC (3 Day Curative)) was more than 70%.

One may read the melting point as the temperature of the solid-liquid transition.
